According to the supplement of paper PMC10307832:

How the values were obtained:
Test in all cases: relative viability (nuclei count vs DMSO), 5 days (fraction); higher = more cells survive
[1] = compound: CC(=O)Nc1cccc(-n2c(=O)n(C3CC3)c(=O)c3c(Nc4ccc(I)cc4F)n(C)c(=O)c(C)c32)c1 [Trametinib] + Cc1nc(NC(=O)N2CCC[C@H]2C(N)=O)sc1-c1ccnc(C(C)(C)C(F)(F)F)c1 [Alpelisib] (partner 2 µM)
Method in brief: (§1)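 Lung cancer cell lines in 1536-well plates were dosed by pin tool the day after seeding, either with one drug alone or with a fixed anchor-drug dose plus five library-drug doses (not always all listed) in √10 steps. After 5 days, cells were fixed and their nuclei stained in one step (final 0.05% Triton X-100, 1% formaldehyde, 1 ug/ml Hoechst), then counted on 4× images. Relative viability is the nuclei count in treated wells divided by that in vehicle wells. Values are medians of duplicate plates.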

[2] = compound: CC(=O)Nc1cccc(-n2c(=O)n(C3CC3)c(=O)c3c(Nc4ccc(I)cc4F)n(C)c(=O)c(C)c32)c1 [Trametinib] + N=C(N)NC(=N)NCCc1ccccc1 [Phenformin] (partner 250 µM)
Method in brief: as §1

[3] = compound: CN1C=C(C2=CC=CC=C21)/C=C\3/C4=C(C=CC=N4)NC3=O + C[C@@H](Oc1cc(-c2cnn(C3CCNCC3)c2)cnc1N)c1c(Cl)ccc(F)c1Cl [Crizotinib] (partner 1 µM)
Method in brief: as §1

[4] = compound: CN1C=C(C2=CC=CC=C21)/C=C\3/C4=C(C=CC=N4)NC3=O + O=C(CCCCCCC(=O)Nc1ccccc1)NO [Vorinostat] (partner 1 µM)
Method in brief: as §1

Cell Line	relative viability ([1]; first compound 0.0025 µM)	relative viability ([1]; first compound 0.007906 µM)	relative viability ([1]; first compound 0.025 µM)	relative viability ([1]; first compound 0.07906 µM)	relative viability ([1]; first compound 0.25 µM)	relative viability ([2]; first compound 0.0025 µM)	relative viability ([2]; first compound 0.007906 µM)	relative viability ([2]; first compound 0.025 µM)	relative viability ([2]; first compound 0.07906 µM)	relative viability ([2]; first compound 0.25 µM)	relative viability ([3]; first compound 0.02 µM)	relative viability ([3]; first compound 0.06325 µM)	relative viability ([3]; first compound 0.2 µM)	relative viability ([3]; first compound 0.6325 µM)	relative viability ([3]; first compound 2 µM)	relative viability ([4]; first compound 0.02 µM)	relative viability ([4]; first compound 0.06325 µM)	relative viability ([4]; first compound 0.6325 µM)	relative viability ([4]; first compound 2 µM)	relative viability ([4]; first compound 0.2 µM)
HOP-62	0.813	0.984	0.525	0.377	0.166	0.692	0.643	0.441	0.331	0.209	0.902	0.938	0.789	0.918	1.01	0.565	0.543	0.576	0.547	–
LC-2-ad	0.864	0.452	0.662	0.408	0.233	0.625	0.543	0.5	0.427	0.338	0.439	0.468	–	0.409	0.686	0.67	0.661	0.706	0.669	0.666
LCLC-97TM1	0.216	0.199	0.146	0.183	0.11	0.415	0.448	0.383	0.301	0.288	0.232	–	–	0.331	0.419	–	0.621	0.766	0.77	0.467
LCLC-103H	0.974	0.875	0.665	0.81	0.624	0.319	0.349	0.318	0.269	0.307	1.11	1.13	1.05	1.13	1.07	0.819	0.755	0.853	0.766	0.749
LK-2	1	0.862	0.958	1.28	0.303	0.433	0.649	0.379	0.35	0.142	–	0.205	0.202	0.243	0.219	–	0.263	0.231	0.315	0.199
LOU-NH91	0.674	0.601	0.619	0.545	0.4	0.685	0.752	0.661	0.364	0.294	0.74	0.649	0.672	0.709	0.724	0.816	0.851	0.809	0.848	0.789
LU99A	0.571	0.456	0.444	0.262	0.172	0.895	0.812	0.642	0.588	0.455	0.522	0.479	0.607	0.568	0.603	0.475	0.401	0.492	0.477	0.508
LXF-289	0.961	0.894	0.758	0.672	0.495	0.503	0.451	0.444	0.422	0.263	0.775	0.785	0.881	0.849	0.895	0.693	0.828	0.817	0.801	0.689
NCI-H23	0.635	0.509	0.264	0.349	0.208	0.782	0.738	0.312	0.583	0.303	0.453	0.504	–	0.62	0.624	0.579	0.518	0.612	0.474	0.537
